Measurements taken from patent US20250288570A1, “TREATMENT OF NEUROLOGICAL DISORDERS” (Praxis Precision Medicines, Inc., priority 2022, published 2025).

Key:
[1] = tested on: scPTZ-induced seizures in CD-1 mice; assay: Subcutaneous pentylenetetrazole (scPTZ) induced seizure test; format: in vivo, mouse
Description: The subcutaneous pentylenetetrazole (scPTZ) test is a validated model for evaluating the anti-seizure potential of compounds. The positive control valproate is an approved anti-seizure medicine (ASM). This study evaluated the efficacy of Compound 1 to attenuate scPTZ-induced seizures in wildtype CD-1 mice. Doses of Compound 1 used were 1 mg/kg, 3 mg/kg, 6 mg/kg and 10 mg/kg administered orally. Valproate (600 mg/kg, administered intraperitoneally) was used as a positive control as it has a broad spectrum of anticonvulsant activity.
Male CD-1 mice (Charles River Laboratories, St. Constant, Quebec, Canada) were used for the study. Body weights at the time the experiment was carried out were between 27 and 39 grams. The mice were group-housed in polycarbonate cages according to standard operating procedures. Animals were maintained on a 12 hour light/12 hour dark cycle, with all experimental activities occurring during the light phase. Food and water were available ad libitum. […]
Immediately prior to the administration of PTZ, a brief neurological assessment was performed. Each animal was visually assessed and received a score from 0 to 3 according to the following scoring system: neurological score of 0 corresponds to a normal status; neurological score of 1 corresponds to a modest decrease in spontaneous activity; neurological score of 2 corresponds to a marked decrease in spontaneous activity; and neurological score of 3 corresponds to loss of righting reflex.
PTZ (85 mg/kg, 10 mL/kg) was administered as a subcutaneous (s.c.) injection. […] The latency to generalized clonic seizure was recorded. Seizures were also scored using a seizure scale. Mice were scored with the following stages: 0) no seizure activity, 1) myoclonic jerks with “flat body posture”, 2) generalized clonus with loss of posture lasting ˜2 s, 3) generalized clonus with loss of posture lasting ˜10 s or 4) tonic hindlimb extension. Seizure scores were used as a qualitative measure to assess seizure incidence and were not used as a quantitative measure of pharmacological activity. […]

[2] = Phase 1 clinical trial, single ascending dose (Part A), healthy volunteers; format: in vivo, human
Text: This is a trial to assess the safety, tolerability, pharmacokinetics (PK), and pharmacodynamics (PD) of Compound 1 in healthy participants aged 18 to 55 years (inclusive). The trial is initially comprised of 2 parts, with 1 additional optional part, as follows: • Part A is randomized, double-blinded, and placebo-controlled. Part A is designed to investigate the safety, PK, and PD of single ascending doses of Compound 1. • Part B is randomized, double-blinded, and placebo-controlled. Part B is designed to investigate the safety, PK, and PD of multiple ascending doses (selected based on the results from Part A) of Compound 1. • Part C (optional) is a randomized, open-label, crossover design food effect evaluation to investigate the PK of a single dose (selected based on the results from Part A) of Compound 1 in the fasted and fed state.
Safety and tolerability assessments for Parts A, B, and C will include vital signs, 12-lead ECGs, physical examinations, clinical laboratory tests, and the C-SSRS (for Part B).
Healthy participants will be enrolled to receive single ascending oral doses of Compound 1 or placebo on Day 1. FIG. 14A is an illustration of the dosing scheme for Part A (single ascending dose) of the trial. Dose escalation in Part A will initially be conducted in up to a total of 4 planned cohorts (Cohorts A1 to A4). Following completion of Cohort A4, up to an additional 3 escalation cohorts may be added. […] Doses may be adjusted upward or downward based on safety, tolerability, and PK data from the preceding cohorts. Cohorts after A4 will be numbered sequentially (A5, A6, etc.). […]
Compound 1 will be administered to Cohort A1 participants at the starting dose of 5 mg. […] The safety and tolerability of each sentinel participant will be monitored until Day 2 and will be reviewed prior to dosing the remainder of participants in the cohort. […]
Cohorts will be dosed in an escalating order. […] If the current dose level is determined to be safe and tolerated by the SRC, the next dose cohort will be randomized to receive the selected dose of active Compound 1 or placebo. […]

## CCOC(F)(F)c1nnc2ccc(-c3cnc(OCC(F)(F)F)c(F)c3)cn12 [Compound 1]
[1]; 10 mg/kg
  spontaneous activity (in words): modest reduction in spontaneous activity was observed in a single mouse
[1]; 1-10 mg/kg p.o.
  protection in PTZ acute seizure model (in words): protected from generalized clonus
[1]; dose range tested
  neurological scores (in words): Neurological scores for all but one mouse treated with Compound 1 were normal
[2]; healthy participants, single oral doses up to 45 mg
  safety and tolerability (in words): safe and generally well tolerated
[2]; single doses up to 45 mg
  most frequently reported TEAEs: headache and fatigue
  severity of treatment-emergent adverse events: mild in severity
